Experimental data reported in US9676715B2, “Bis-indolic derivatives, a process for preparing the same and their uses as a drug” (UNIVERSITE JOSEPH FOURIER, priority 2011, dated 2017).

Legend:
[1] = tested on: S. epidermidis ATCC 12228; assay: MIC, microdilution method (9.1); assay type: cell-based, Staphylococcus epidermidis; settings: Staphylococcus epidermidis, ATCC12228, read after 18 h, read-out: MIC
Procedure, shortened: (§1)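 Mueller Hinton broth cultures at 5×10^5 CFU/ml final were exposed to doubling concentrations of compound from 0.50 to 128 mg/L. Incubation: 37° C., ambient atmosphere. Method per CLSI M07-A8; blood supplement and CO2 reserved for fastidious organisms.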

[2] = tested on: Klebsiella pneumoniae API ATCC 35657; assay: MIC, microdilution method (9.1); assay type: cell-based; settings: ATCC35657, 18 h, read-out: MIC
Procedure, shortened: as §1

[3] = tested on: Pseudomonas aeruginosa CIP 5933; assay: MIC, microdilution method (9.1); assay type: cell-based; settings: CIP5933, 18 h, read-out: MIC
Procedure, shortened: as §1

S. pneumoniae ATCC 49619 = assay: MIC, microdilution method (9.1); assay type: cell-based; settings: Streptococcus pneumoniae, ATCC49619, 10% sheep blood, 5% CO2, 18 h
Procedure, shortened: (§2)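 Standard CLSI broth microdilution. Test range 0.50-128 mg/L (final), doubling steps.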

[4] = tested on: Haemophilus influenzae ATCC 49766; assay: MIC, microdilution method (9.1); assay type: cell-based; settings: ATCC49766; Haemophilus influenzae ATCC 49766; 10% sheep blood, 5% CO2; 18 h; read-out: MIC
Procedure, shortened: as §2

[5] = tested on: Escherichia coli ATCC 25922; assay: MIC, microdilution method (9.1); assay type: cell-based; settings: ATCC25922, 18 h
Procedure, shortened: as §1

[6] = tested on: Listeria innocua CIP 80.11; assay: MIC, microdilution method (9.1); assay type: cell-based; settings: CIP80, 18 h, read-out: MIC
Procedure, shortened: as §1

[7] = tested on: Acinetobacter baumanii ATCC 19606; assay: MIC, microdilution method (9.1); assay type: cell-based; settings: Acinetobacter baumannii, ATCC19606, 18 h, read-out: MIC
Procedure, shortened: as §1

[8] = tested on: Bacillus subtilis CIP 5262; assay: MIC, microdilution method (9.1); assay type: cell-based; settings: CIP5262, 18 h, read-out: MIC
Procedure, shortened: as §1

[9] = tested on: Enterobacter cloacae ATCC13047; assay: MIC, microdilution method (9.1); assay type: cell-based; settings: 18 h
Procedure, shortened: as §1

[10] = tested on: Serratia marcescens CIP 103551; assay: MIC, microdilution method (9.1); assay type: cell-based; settings: CIP103551, 18 h
Procedure, shortened: as §1

[11] = tested on: S. agalactiae (group B) ATCC 12400; assay: MIC, microdilution method (9.1); assay type: cell-based, Streptococcus agalactiae; settings: Streptococcus agalactiae, ATCC12400, 18 h, read-out: MIC
Procedure, shortened: as §1

[12] = tested on: S. pyogenes (group A) CIP 104226; assay: MIC, microdilution method (9.1); assay type: cell-based, Streptococcus pyogenes; settings: Streptococcus pyogenes, CIP104226, 18 h, read-out: MIC
Procedure, shortened: as §1

S. pneumoniae ATCC 6303 = assay: MIC, microdilution method (9.1); assay type: cell-based, Streptococcus pneumoniae; settings: Streptococcus pneumoniae, ATCC6303, 10% sheep blood, 5% CO2, 18 h, read-out: MIC
Procedure, shortened: as §2

E. faecalis ATCC 29212 = assay: MIC, microdilution method (9.1); assay type: cell-based, Enterococcus faecalis; settings: Enterococcus faecalis, ATCC29212, 18 h, read-out: MIC
Procedure, shortened: as §1

[13] = tested on: Staphylococcus aureus K2378 (overexpresses the efflux pump NorA from a multicopy plasmid); assay: Efflux pump inhibition assay with sub-inhibitory ciprofloxacin; assay type: cell-based; settings: S. aureus K2378; in the presence of ciprofloxacin 0.5 mg/L
Description: (§3) The efflux pump inhibition potential of the bis-indolic derivatives was tested using two steps.
(§4) The following experimental protocol was used: indolic derivatives (initially solubilised in DMSO at 10 mg/mL) were dispensed in a 96-wells microplate by two fold serial dilutions in Muller-Hinton medium (MH, Bio Rad) using a Biomek 2000 (Beckman) handling robot. 100 μL of the bacterial inoculum (an overnight culture at 37° C. in 5 mL MH diluted 100-fold) was then added in each well. The total volume was 200 μL in each well and the final bacteria concentration 10^6 CFU/mL (CFU: colony forming unit). The highest final indolic derivative concentration was 128 mg/L. Growth was assayed with a microplate reader by monitoring absorption at 620 nm after 1, 2, 5, 7 and 24 h incubation at 37° C. In addition, the plates were read visually after 24 hours incubation. Cultures containing 5 μL DMSO were used as growth controls. In addition, two controls containing a sub-inhibitory or a inhibitory antibiotic concentration for the tested strain were performed. The antibiotics used were ampicillin (0.5 and 32 μg/mL) for E. coli, kanamycin (0.5 and 16 μg/mL) for S. aureus ATCC 25923, ciprofloxacin (4 and 64 mg/L) for S. aureus 1199B, ciprofloxacin (0.5 and 2 mg/L) for S. aureus K2378. All experiments were performed in duplicate.
(§5) Efflux pump inhibition assays were then performed against resistant Staphylococcus aureus strains SA 1199B and SA K2378 for bis-indolic derivatives. […] The minimal inhibitory concentration (MIC) of the bis-indolic compound allowing a complete inhibition of the bacterial growth in the presence of ciprofloxacin was determined.

[14] = tested on: Staphylococcus aureus 1199B (overexpression of the NorA efflux pump); assay: as above; assay type: cell-based; settings: S. aureus 1199B
Description: as §3, §4, §5

E. faecium CIP 54.32 = assay: MIC, microdilution method (9.1); assay type: cell-based, Enterococcus faecium; settings: Enterococcus faecium, CIP54, 18 h, read-out: MIC
Procedure, shortened: as §1

S. mitis CIP 103335 = assay: MIC, microdilution method (9.1); assay type: cell-based, Streptococcus mitis; settings: Streptococcus mitis, CIP103335, 18 h, read-out: MIC
Procedure, shortened: as §1

[15] = tested on: KB (human mouth carcinoma); assay: In vitro cytotoxicity; assay type: cell-based; settings: read-out: % of cellular growth inhibition; for inhibition at 10 µM: 10^−5 M; for inhibition at 1 µM: 10^−6 M
Description: (§6) In vitro cytotoxicity was assayed on three cell lines—KB (human mouth carcinoma), MCR5 (human lung fibroblast) and HCT116 (human colon tumor). Results are presented in table IV as % of cellular growth inhibition in presence of 10^−5 M and 10^−6 M of the tested bis-indolic derivatives.

[16] = tested on: HCT116 (human colon tumor); assay: In vitro cytotoxicity; assay type: cell-based; settings: read-out: % of cellular growth inhibition; for inhibition at 10 µM: HCT-116, 10^−5 M; for inhibition at 1 µM: HCT-116, 10^−6 M
Description: as §6

[17] = tested on: MRC5 (human lung fibroblast); assay: In vitro cytotoxicity; assay type: cell-based; settings: read-out: % of cellular growth inhibition; for inhibition at 10 µM: 10^−5 M; for inhibition at 1 µM: 10^−6 M
Description: as §6

S. aureus ATCC 29213 = assay: MIC, microdilution method (9.1); assay type: cell-based, Staphylococcus aureus; settings: Staphylococcus aureus, ATCC29213, read after 18 h, read-out: MIC
Procedure, shortened: as §1

S. aureus ATCC 25923 = assay: MIC, microdilution method (9.1); assay type: cell-based, Staphylococcus aureus; settings: Staphylococcus aureus, ATCC25923, read after 18 h, read-out: MIC
Procedure, shortened: as §1

[18] = tested on: S. epidermidis CIP 103627; assay: MIC, microdilution method (9.1); assay type: cell-based, Staphylococcus epidermidis; settings: Staphylococcus epidermidis, CIP103627, read after 18 h, read-out: MIC
Procedure, shortened: as §1

S. epidermidis CIP 81.55 = assay: MIC, microdilution method (9.1); assay type: cell-based, Staphylococcus epidermidis; settings: Staphylococcus epidermidis, CIP81, read after 18 h, read-out: MIC
Procedure, shortened: as §1

S. aureus CIP 103428 = assay: MIC, microdilution method (9.1); assay type: cell-based, Staphylococcus aureus; settings: Staphylococcus aureus, CIP103428, read after 18 h, read-out: MIC
Procedure, shortened: as §1

[19] = tested on: S. aureus ATCC 33592 (MRSA); assay: MIC, microdilution method (9.1); assay type: cell-based, Staphylococcus aureus; settings: Staphylococcus aureus, read after 18 h, read-out: MIC
Procedure, shortened: as §1

[20] = tested on: S. aureus ATCC 106414 (VISA); assay: MIC, microdilution method (9.1); assay type: cell-based, Staphylococcus aureus; settings: Staphylococcus aureus, read after 18 h, read-out: MIC
Procedure, shortened: as §1

S. aureus ATCC 6538 = assay: MIC, microdilution method (9.1); assay type: cell-based, Staphylococcus aureus; settings: Staphylococcus aureus, ATCC6538, read after 18 h, read-out: MIC
Procedure, shortened: as §1

[21] = tested on: S. aureus CIP 65.25 (MRSA); assay: MIC, microdilution method (9.1); assay type: cell-based, Staphylococcus aureus; settings: Staphylococcus aureus, read after 18 h, read-out: MIC
Procedure, shortened: as §1

S. aureus ATCC 9144 = assay: MIC, microdilution method (9.1); assay type: cell-based, Staphylococcus aureus; settings: Staphylococcus aureus, ATCC9144, read after 18 h, read-out: MIC
Procedure, shortened: as §1

S. aureus SA-1199B = assay: MIC, microdilution method (9.1); assay type: cell-based, Staphylococcus aureus; settings: Staphylococcus aureus, SA1199B, 18 h
Procedure, shortened: as §1

S. aureus CIP 65.6 = assay: MIC, microdilution method (9.1); assay type: cell-based, Staphylococcus aureus; settings: Staphylococcus aureus, CIP65, read after 18 h, read-out: MIC
Procedure, shortened: as §1

S. aureus = settings: penicillin M compounds; cited from earlier work
[22] = in the presence of ciprofloxacin 2 mg/L
[23] = in the presence of ciprofloxacin 4 mg/L

Which results are given for `CC(C)(C)OC(=O)NCC(NC(=O)c1c[nH]c2ccccc12)c1c[nH]c2ccccc12` (stereo not drawn) [Compound 3a, tert-Butyl (2-(1H-indol-3-yl)-2-(1H-indole-3-carboxamido)ethyl)carbamate]?
MIC [1]: > 128 µg/mL; MIC [2]: > 128 µg/mL; MIC [3]: > 128 µg/mL; MIC (S. pneumoniae ATCC 49619): > 128 µg/mL; MIC [4]: > 128 µg/mL; MIC [5]: > 128 µg/mL; MIC [6]: > 128 µg/mL; MIC [7]: > 128 µg/mL; MIC [8]: > 128 µg/mL; MIC [9]: > 128 µg/mL; MIC [10]: > 128 µg/mL; MIC [11]: > 128 µg/mL; MIC [12]: > 128 µg/mL; MIC (S. pneumoniae ATCC 6303): > 128 µg/mL; MIC (E. faecalis ATCC 29212): > 128 µg/mL; MIC, mg/L (Ciprofloxacin concentration, mg/L) [13]: 4 (0.5) mg/L; MIC, mg/L (Ciprofloxacin concentration, mg/L) ([14]; in the presence of ciprofloxacin 1 mg/L): 2 (1) mg/L; MIC, mg/L (Ciprofloxacin concentration, mg/L) [14, 22]: 0.5 (2) mg/L; MIC, mg/L (Ciprofloxacin concentration, mg/L) [14, 23]: 0.25 (4) mg/L; MIC (E. faecium CIP 54.32): > 128 µg/mL; MIC (S. mitis CIP 103335): > 128 µg/mL; inhibition at 10 µM [15]: 18 ± 1%; inhibition at 1 µM [15]: 16%; inhibition at 10 µM [16]: 22 ± 5%; inhibition at 1 µM [16]: 11%; inhibition at 10 µM [17]: 14 ± 1%; inhibition at 1 µM [17]: 2%; MIC (S. aureus ATCC 29213): > 128 µg/mL; MIC (S. aureus ATCC 25923): > 128 µg/mL

For `O=C(NC(C(=O)O)c1c[nH]c2ccc(Br)cc12)c1c[nH]c2ccc(Br)cc12` (stereo not drawn) [Compound 12, 2-(5-Bromo-1H-indol-3-yl)-2-(5-bromo-1H-indole-3-carboxamido) acetic acid], which MIC [1] is on record?
The MIC was over 32 µg/mL.

And the MIC [18]?
Its MIC is over 32 µg/mL.

And the MIC (S. epidermidis CIP 81.55)?
The MIC was over 32 µg/mL.

And the melting point?
Its melting point is 195 °C.

And the “MIC, mg/L (Ciprofloxacin concentration, mg/L)” value (“MIC, mg/L” below) [13]?
The value was 64 (0.5) mg/L.

What about the “MIC, mg/L” value [14, 22] of the same compound?
Its value is 32 (2) mg/L.

And the “MIC, mg/L” value [14, 23]?
Its value is 64 (4) mg/L.

And the inhibition at 10 µM [15]?
The inhibition at 10 µM was 0%.

What about the inhibition at 1 µM [15] of the same compound?
The inhibition at 1 µM was 0%.

And the inhibition at 10 µM [16]?
The inhibition at 10 µM was 0%.

What about the inhibition at 1 µM [16] of the same compound?
Its inhibition at 1 µM is 0%.

What about the inhibition at 10 µM [17] of the same compound?
Its inhibition at 10 µM is 3 ± 3%.

And the inhibition at 1 µM [17]?
The inhibition at 1 µM was 3%.

What about the MIC (S. aureus CIP 103428) of the same compound?
The MIC was over 32 µg/mL.

And the MIC (S. aureus ATCC 29213)?
Its MIC is over 32 µg/mL.

And the MIC [19]?
The MIC was over 32 µg/mL.

And the MIC [20]?
The MIC was over 32 µg/mL.

What about the MIC (S. aureus ATCC 6538) of the same compound?
Its MIC is over 32 µg/mL.

And the MIC [21]?
The MIC was over 32 µg/mL.

And the MIC (S. aureus ATCC 9144)?
The MIC was over 32 µg/mL.

And the MIC (S. aureus SA-1199B)?
The MIC was over 32 µg/mL.

What about the MIC (S. aureus ATCC 25923) of the same compound?
The MIC was over 32 µg/mL.

And the MIC (S. aureus CIP 65.6)?
The MIC was over 32 µg/mL.

For `COc1cccc(OC)c1C(=O)N[C@@H]1C(=O)N2[C@@H]1SC(C)(C)[C@@H]2C(=O)O` [methicillin], which mutation frequency (S. aureus) is on record?
The mutation frequency was ~10^−9.

For `Cc1onc(-c2ccccc2)c1C(=O)N[C@@H]1C(=O)N2[C@@H]1SC(C)(C)[C@@H]2C(=O)O` [oxacillin], which mutation frequency (S. aureus) is on record?
The mutation frequency was ~10^−9.
